Data from paper PMC9022420 (Scientific Reports, 2022).
Several values for one entry are separate records, joined by “and”; a condition that tells them apart may be missing. Equal entries are not always repeated.

Assays:
[1] = system: 17Cl-1 cells; assay: 24 h MTS cytotoxicity assay, 17Cl-1; assay type: cell-based, murine; conditions: Mus musculus, 24 h incubation, dark
Experimental: (§1) The MTS tetrazolium compound is reduced by cells into a coloured formazan product which is soluble in cell culture media. It can be detected colorimetrically between 450 and 540 nm with the measured absorbance directly proportional to the amount of metabolically active cells in culture. Cells were seeded into clear 96-well plates containing 10,000 cells/well in 100 µL complete growth medium and cultured for 24 h at 37 °C and 5% CO2. […] After further 24 h incubation at 37 °C and 5% CO2, 20 µL of CelTiter 96® AQueous One Solution (Promega) was added into each well and incubated at 37 °C, 5% CO2 for 1–4 h, according to the manufacturer’s instruction. The absorbance of each well was measured at 490 nm using a plate reader (Spark, Tecan). Control measurements included negative control of cells with DMEM, cells with DMEM containing 0.1% DMSO, cell-free culture media (blank) and cell-free sample dilutions in culture media to evaluate potential sample interferences with MTS assay. All experiments were conducted in biological triplicates. The percentage cell viability was calculated according to Eq. (1):1 Cell viability(%)=100×Absorbanceoftreatedcells-Absorbanceofblank/Absorbanceofcontrol-Absorbanceofblank

[2] = system: WI-38 cells; assay: Light-induced toxicity towards WI-38 cells (MTS); assay type: cell-based, human; conditions: 10 μM flavin, 15 min irradiation 1 × 10^5 lx
Experimental: An adapted method reported by Maisch et al. was used to conduct phototoxicity studies on human lung fibroblasts, WI-38[28]. Cells were seeded into 96-well plates containing 10,000 cells/well in 100 µL complete growth medium and cultured for 24 h at 37 °C and 5% CO2. […] The resulting mixtures were then incubated in the dark for 5 min and then either illuminated with 1 × 10^5 lx for 5, 10 or 15 min, or incubated further in the dark for 15 min (dark control). After irradiation, the flavin solutions were removed and 100 μL of DMEM with 10% FBS and without phenol red was added to each well and incubated over night at 37 °C and 5% CO2. Subsequently, 20 µL of MTS reagent was added into each well and incubated at 37 °C and 5% CO2 for 1–4 h and the absorbance of each well was measured at 490 nm using a plate reader. Control measurements included negative control untreated cells with light and in the dark containing 0.1% DMSO and cells treated with flavins for 15 min in the dark. All experiments were conducted in biological triplicates. The percentage cell viability was calculated according to Eq. (1).

[3] = Flavin photostability in PBS under white LED irradiation; assay type: physicochemical; conditions: 100 µM in PBS, white LED 1 × 10^5 lx, 30 min irradiation
From the text: After successful synthesis and initial characterisation, we monitored the photostability of the compounds in PBS (1x, pH 7.4) which was used for PDI assays as distilled or ultrapure water destabilises bacterial cells and coronaviruses through osmotic pressures[37],[38], thereby augmenting inactivation results. […] This yields lumichrome as the major degradation product which can only act as a PS under UV-irradiation[40]. […] However, it appears that guanidino substitution in our case improves the photostability.
Figure S4: (A) Flavin photostability (100 µM) in PBS (0.1% DMSO) irradiated with 1x105 lx (35 mW/cm2) where A
= Abs at 450 nm and A0 = Abs at 450 nm at 0 min.
photostability. Experiments were performed using a quartz cuvette and measured using an Agilent Cary 300
(1 picture or pasted object on this page, not shown here)

[4] = system: E. coli BL21(DE3); assay: Photodynamic inactivation of E. coli (CFU counting); assay type: cell-based
Experimental: After an overnight aerobic culture in LB broth at 37 °C with shaking at 225 rpm, the resulting E. coli were centrifuged at 2,500 rpm for 10 min. The pellet was resuspended in PBS (Sigma, 1x, pH 7.4) to an OD600 value of 0.6 (~ 1 × 10^8 bacteria per ml). […] Aliquots of negative controls (0.5% DMSO in PBS; PBS only) and 100 μM flavin-bacteria samples were covered in foil to remain in dark, while all samples were plated onto a 96-well plate and exposed to white LED irradiation (1 × 10^5 lx) for 15 min. After 15 min of irradiation or darkness, each sample was serially diluted to its respective, appropriate dilution and plated onto an LB agar plate with 50 μg/mL kanamycin. Plates were incubated overnight at 37 °C in the dark. Survival of bacteria was determined by counting colony forming units (CFUs) the next day.
For time point data, aliquots of 100 μM flavin-bacteria solutions were taken at 5-min increments of irradiation (0, 5, 10, and 15 min) and evaluated similarly as above. Time point experiment with one-minute increments, between 0 and 5 min, were conducted for 100 μM F4-bacteria samples.

[5] = system: ssRNA (EGFP-encoding mRNA, ~ 1 k nt); assay: ssRNA photocleavage, agarose gel electrophoresis; assay type: biochemical; conditions: 10 µM flavin, 15 min white LED, PBS 0.1% DMSO
Experimental: A 20 µL aliquot was taken after 15 min of white LED irradiation (1 × 10^5 lx). Prior to loading, 2 µL of 6X Orange-G loading dye in glycerol were added to the aliquot and mixed vigorously. The gel was electrophoresed at 80 V for 35 min with 1% agarose gels in 1X Tris–acetate-EDTA (TAE) buffer. Gels were then imaged in a Syngene G:BOX Gel Documentation System and band % quantification was performed using ImageJ Gel Analyzer.

[6] = system: WI-38 cells; assay: 24 h MTS cytotoxicity assay, WI-38; assay type: cell-based; conditions: Homo sapiens, 24 h incubation, dark
Experimental: as §1

[7] = Fluorescence quantum yield determination; assay type: physicochemical; conditions: in DMSO; for φF fluorescence quantum yield: calculated using riboflavin as the reference
Experimental: 4 Fluorescence Quantum Yield Calculations
The fluorescence quantum yields (ФF) for F1-4 were determined by preparing a series of dilutions in DMSO ranging
in absorbance values from 0.02 to 0.10 and excited at their respective absorbance maxima (see Table S1).3 The
emission peak was then integrated and plotted against the absorbance value (see Figure S1). Riboflavin (from
according to equation (1):
Φ!;#$%&’( = Φ!;)(* $ !"#$%&% $ !"#$%&) % (1)
Where Slope = gradient from the plot of integrated emission peak vs. absorption value and η = refractive index
Flavin ε (M-1cm-1) λex (nm) λem (nm)
Figure S2: Plot of integrated emission peak against absorbance value of flavins F1-4 and reference compound

[8] = UV-Vis absorption and emission spectra of flavins in DMSO; assay type: physicochemical; conditions: measured in DMSO
[9] = 10 µM flavin, 15 min irradiation
[10] = 100 µM flavin, 5 min irradiation (10.5 J/cm^2)
[11] = 100 µM flavin, 10 min irradiation

Compound | IC50 [1] [µM] | reduction in cell viability (light-induced toxicity) [2] | photodecomposition / degradation [3] | E. coli log10 reduction of CFUs [4, 9] [log10] | E. coli log10 reduction of CFUs [4, 10] [log10] | E. coli log10 reduction of CFUs [4, 11] [log10] | % cleaved ssRNA [5] [%] | IC50 [6] [µM] | ФF fluorescence quantum yield [7] [%] | φF fluorescence quantum yield [7] | λ1 (S0 → S1 absorption band) [8] [nm] | λ2 (S0 → S2 absorption band) [8] [nm] | λem (emission wavelength) [8] [nm] | E. coli reduction of bacteria ([4]; 100 µM flavin, 5 min irradiation) [%] | E. coli log10 reduction of CFUs ([4]; 100 µM flavin, 15 min irradiation) [log10] | E. coli reduction of bacteria ([4]; 100 µM flavin, 1 min irradiation) [%] | E. coli log10 reduction of CFUs ([4]; 100 µM flavin, 1 min irradiation (2.10 J/cm^2), calculated vs t0 = 7.9) | bacterial inactivation, log10 reduction ([4]; 15 min irradiation at 11 μM) [log10]
CCCCCCCCn1c(=O)nc2n(CCN)c3cc(C)c(C)cc3nc-2c1=O [Flavin F1] | 70.2 | no decrease in cell viability | around 40% | 0.2 | 0.1 | 0.1 | 12 | 96.1 | 13 | 0.129 ± 0.012 | 444 | 349 | 507 |  |  |  |  | 
CCCCCCCCn1c(=O)nc2n(CCNC(=N)N)c3cc(C)c(C)cc3nc-2c1=O [Flavin F2] | > 100 | ~ 75% | approximately 10% |  | 3.4 | 5.9 | 46 | > 100 | 14 | 0.141 ± 0.010 | 446 | 350 | 512 | > 99.9 |  |  |  | 
CCCCCCCCn1c(=O)nc2n(CCN)c3cc(Br)c(Br)cc3nc-2c1=O [Flavin F3] | 3.66 | no decrease in cell viability | ~60% | 0.4 | 1.3 | 1.7 | 35 | 30.9 | < 2 | 0.009 ± 0.013 | 443 | 336 | 508 |  | 1.8 |  |  | 
CCCCCCCCn1c(=O)nc2n(CCNC(=N)N)c3cc(Br)c(Br)cc3nc-2c1=O [Flavin F4] | 50.9 | ~ 20% | ~30% | 2.8 |  | 8.7 | 42 | > 100 | < 2 | 0.011 ± 0.010 | 444 | 340 | 513 |  |  | > 99.99 | 4.1 log10 and > 4 log10 | > 3
